In patent US9895338B1, “Cobalt-polypyridyl complex for treatment of cancer, a pharmaceutical composition and a kit comprising it” (Macau University of Science and Technology, priority 2016, dated 2018):

Legend:
[1] = tested on: HeLa cells (cervical cancer); assay: MTT cytotoxicity assay, HeLa; assay type: cell-based; conditions: 72 h
Experimental: (§1) All prepared cobalt-polypyridyl complexes were dissolved in DMSO at a final concentration of 50 mmol/L and stored at −20° C. before use. Cytotoxicity was assessed by using the 3-(4,5-dimethylthiazol-2-yl)-2,5-diphenyltetrazolium bromide (MTT) (5.0 mg/ml) assay as previously described (Wong, V. K. et al., Cell Death Dis, 2013, 4, e720). Briefly, 4×10^3 cells per well were seeded in 96-well plates before drug treatments. After overnight culture, the cells were then exposed to different concentrations of selected compounds (0.039-100 μmol/L) for 72 h. Cells without drug treatment were used as control. Subsequently, MTT (10 μL) solution was added to each well and incubated at 37° C. for 4 h followed by the addition of 100 μL solubilization buffer (10% SDS in 0.01 mol/L HCl) and overnight incubation. A570 nm was then determined in each well on the next day. The percentage of cell viability was calculated using the following formula: Cell viability (%)=Atreated/Acontrol×100. Data were obtained from three independent experiments. Cells include HeLa cells (cervical cancer), MCF-7 (breast cancer), H1299, H1975, A549 and LLC-1 (lung cancer), HepG2 and Hep3B (liver cancer) and LO2 (normal human hepatocytes).

MCF-7 (breast cancer) = assay: MTT cytotoxicity assay, MCF-7; assay type: cell-based; conditions: MCF-7, MTT, 72 h
Experimental: as §1

H1299 (lung cancer) = assay: MTT cytotoxicity assay, H1299; assay type: cell-based, human; conditions: 72 h
Experimental: as §1

H1975 (lung cancer) = assay: MTT cytotoxicity assay, H1975; assay type: cell-based; conditions: 72 h
Experimental: as §1

A549 (lung cancer) = assay: MTT cytotoxicity assay, A549; assay type: cell-based; conditions: 72 h
Experimental: as §1

LLC-1 (lung cancer) = assay: MTT cytotoxicity assay, LLC-1; assay type: cell-based; conditions: LLC-1, MTT, 72 h
Experimental: as §1

HepG2 (liver cancer) = assay: MTT cytotoxicity assay, HepG2; assay type: cell-based; conditions: 72 h
Experimental: as §1

Hep 3B (liver cancer) = assay: MTT cytotoxicity assay, Hep3B; assay type: cell-based; conditions: 72 h
Experimental: as §1

[2] = tested on: LO2 (normal human hepatocytes); assay: MTT cytotoxicity assay, LO2; assay type: cell-based; conditions: 72 h
Experimental: as §1

[3] = tested on: Taxol-sensitive MCF-7 cancer cells; assay: MTT cytotoxicity, taxol-sensitive MCF-7; assay type: cell-based; conditions: MCF-7, MTT, 72 h
Experimental: as §1, with “experiments.” for “experiments. Cells include HeLa cells (cervical cancer), MCF-7 (breast cancer), H1299, H1975, A549 and LLC-1 (lung cancer), HepG2 and Hep3B (liver cancer) and LO2 (normal human hepatocytes).”

[4] = tested on: Taxol-resistant MCF-7 cancer cells; assay: MTT cytotoxicity, taxol-resistant MCF-7; assay type: cell-based
Experimental: as §1, with “experiments.” for “experiments. Cells include HeLa cells (cervical cancer), MCF-7 (breast cancer), H1299, H1975, A549 and LLC-1 (lung cancer), HepG2 and Hep3B (liver cancer) and LO2 (normal human hepatocytes).”
(§2) All cells were obtained from the American Type Culture Collection (Rockville, Md., USA) unless otherwise specified. Immortalized wild-type and Atg7-deficient mouse embryonic fibroblasts (MEFs) were provided by Professor Masaaki Komatsu (Juntendo University, School of Medicine, Japan). Taxol-resistant types of A549, MCF-7, HCT-8 cancer cells, cisplatin-resistant SGC7901 cancer cells were purchased from KeyGEN BioTECH, China.

[5] = tested on: Taxol-sensitive HCT8 cancer cells; assay: MTT cytotoxicity, taxol-sensitive HCT8; assay type: cell-based; conditions: 72 h
Experimental: as §1, with “experiments.” for “experiments. Cells include HeLa cells (cervical cancer), MCF-7 (breast cancer), H1299, H1975, A549 and LLC-1 (lung cancer), HepG2 and Hep3B (liver cancer) and LO2 (normal human hepatocytes).”

[6] = tested on: Taxol-resistant HCT8 cancer cells; assay: MTT cytotoxicity, taxol-resistant HCT8; assay type: cell-based
Experimental: as §1, with “experiments.” for “experiments. Cells include HeLa cells (cervical cancer), MCF-7 (breast cancer), H1299, H1975, A549 and LLC-1 (lung cancer), HepG2 and Hep3B (liver cancer) and LO2 (normal human hepatocytes).”
as §2

[7] = tested on: Taxol-sensitive A549 cancer cells; assay: MTT cytotoxicity, taxol-sensitive A549; assay type: cell-based; conditions: 72 h
Experimental: as §1, with “experiments.” for “experiments. Cells include HeLa cells (cervical cancer), MCF-7 (breast cancer), H1299, H1975, A549 and LLC-1 (lung cancer), HepG2 and Hep3B (liver cancer) and LO2 (normal human hepatocytes).”

[8] = tested on: Taxol-resistant A549 cancer cells; assay: MTT cytotoxicity, taxol-resistant A549; assay type: cell-based
Experimental: as §1, with “experiments.” for “experiments. Cells include HeLa cells (cervical cancer), MCF-7 (breast cancer), H1299, H1975, A549 and LLC-1 (lung cancer), HepG2 and Hep3B (liver cancer) and LO2 (normal human hepatocytes).”
as §2

[9] = tested on: cisplatin-sensitive A2780 ovarian cancer cells; assay: MTT cytotoxicity, cisplatin-sensitive A2780; assay type: cell-based; conditions: 72 h
Experimental: as §1, with “experiments.” for “experiments. Cells include HeLa cells (cervical cancer), MCF-7 (breast cancer), H1299, H1975, A549 and LLC-1 (lung cancer), HepG2 and Hep3B (liver cancer) and LO2 (normal human hepatocytes).”
(§3) Cisplatin-sensitive or -resistant A2780, OV2008 and C13 cancer cells were provided by Prof. Benjamin Tsang (Department of Obstetrics and Gynecology and Department of Cellular and Molecular Medicine, University of Ottawa, Canada). HCT116 p53^+/+ and p53^−/− isogenic human colon cancer cells were provided by Professor Bert Vogelstein (Ludwig Center at Johns Hopkins, Howard Hughes Medical Institute, USA). All media were supplemented with 10% fetal bovine serum and the antibiotics penicillin (50 U/ml) and streptomycin (50 μg/ml; Invitrogen, Paisley, Scotland, UK). All cell cultures were incubated at 37° C. in a 5% humidified CO2 incubator.

[10] = tested on: cisplatin-resistant A2780 ovarian cancer cells; assay: MTT cytotoxicity, cisplatin-resistant A2780; assay type: cell-based
Experimental: as §1, with “experiments.” for “experiments. Cells include HeLa cells (cervical cancer), MCF-7 (breast cancer), H1299, H1975, A549 and LLC-1 (lung cancer), HepG2 and Hep3B (liver cancer) and LO2 (normal human hepatocytes).”
as §3

[11] = tested on: cisplatin-sensitive SGC-7901 gastric cancer cells; assay: MTT cytotoxicity, cisplatin-sensitive SGC-7901; assay type: cell-based; conditions: SGC-7901, MTT, 72 h
Experimental: as §1, with “experiments.” for “experiments. Cells include HeLa cells (cervical cancer), MCF-7 (breast cancer), H1299, H1975, A549 and LLC-1 (lung cancer), HepG2 and Hep3B (liver cancer) and LO2 (normal human hepatocytes).”

[12] = tested on: cisplatin-resistant SGC-7901 gastric cancer cells; assay: MTT cytotoxicity, cisplatin-resistant SGC-7901; assay type: cell-based
Experimental: as §1, with “experiments.” for “experiments. Cells include HeLa cells (cervical cancer), MCF-7 (breast cancer), H1299, H1975, A549 and LLC-1 (lung cancer), HepG2 and Hep3B (liver cancer) and LO2 (normal human hepatocytes).”
as §2

[13] = tested on: OV2008 cervical cancer cells; assay: MTT cytotoxicity, OV2008 (cisplatin-sensitive); assay type: cell-based; conditions: 72 h
Experimental: as §1, with “experiments.” for “experiments. Cells include HeLa cells (cervical cancer), MCF-7 (breast cancer), H1299, H1975, A549 and LLC-1 (lung cancer), HepG2 and Hep3B (liver cancer) and LO2 (normal human hepatocytes).”
as §3

[14] = tested on: OV2008/C13 cervical cancer cells; assay: MTT cytotoxicity, OV2008/C13 (cisplatin-resistant); assay type: cell-based
Experimental: as §1, with “experiments.” for “experiments. Cells include HeLa cells (cervical cancer), MCF-7 (breast cancer), H1299, H1975, A549 and LLC-1 (lung cancer), HepG2 and Hep3B (liver cancer) and LO2 (normal human hepatocytes).”
as §3

[15] = tested on: HCT116 p53^+/+ colon cancer cells; assay: MTT cytotoxicity, HCT116 p53+/+; assay type: cell-based, human; conditions: 72 h
Experimental: as §1, with “experiments.” for “experiments. Cells include HeLa cells (cervical cancer), MCF-7 (breast cancer), H1299, H1975, A549 and LLC-1 (lung cancer), HepG2 and Hep3B (liver cancer) and LO2 (normal human hepatocytes).”
as §3

[16] = tested on: HCT116 p53^−/− colon cancer cells; assay: MTT cytotoxicity, HCT116 p53-/-; assay type: cell-based, human
Experimental: as §1, with “experiments.” for “experiments. Cells include HeLa cells (cervical cancer), MCF-7 (breast cancer), H1299, H1975, A549 and LLC-1 (lung cancer), HepG2 and Hep3B (liver cancer) and LO2 (normal human hepatocytes).”
as §3

Atg7 wild-type MEFs = assay: Cytotoxic effect in Atg7 wild-type MEFs; assay type: cell-based, mouse
Description: as §2
(§4) In addition, the protein conversion from LC3-I to LC3-II is the marker for autophagy induction. […] In order to further confirm that the cobalt complex-induced autophagy leads to its anti-cancer effect, the cytotoxic effect of the cobalt-polypyridyl complex of Formula (IV) has been examined in both autophagy-wild type and -deficient cells respectively. Therefore, both autophagy related gene (Atg) 7 wild-type and deficient mouse embryonic fibroblasts (MEFs) (Wong, V. K. et al., Cell Death Dis, 2013, 4, e720) were used in this study. […] In view of the fact that the cobalt-polypyridyl complex of Formula (IV)-mediated cytotoxicity was markedly abrogated from the failure of autophagy induction in Atg7−/− deficient cells, these findings implicated that the cobalt-polypyridyl complex of Formula (IV)-induced autophagy would ultimately led to autophagic cell death.

Atg7 deficient MEFs = assay: Cytotoxic effect in Atg7 deficient MEFs; assay type: cell-based, mouse
Description: as §2, §4

[Co^II(4,4′-Me2-Bpy)3](PF6)2 [complex (III)]
IC50 [1]: 10.1 µM | IC50 (MCF-7 (breast cancer)): 15.4 µM | IC50 (H1299 (lung cancer)): 3.43 µM | IC50 (H1975 (lung cancer)): 15.4 µM | IC50 (A549 (lung cancer)): 9.45 µM | IC50 (LLC-1 (lung cancer)): 2.79 µM | IC50 (HepG2 (liver cancer)): 7.39 µM | IC50 (Hep 3B (liver cancer)): 4.06 µM | IC50 [2]: 13.5 µM | IC50 [3]: 4.62 µM | IC50 ([4]; MCF-7, MTT, 72 h): 2.51 µM | Resistant Factor ([4]; MCF-7, IC50 taxol-resistant over IC50 taxol-sensitive): 0.54 | IC50 [5]: 3.13 µM | IC50 ([6]; HCT8, MTT, 72 h): 1.16 µM | Resistant Factor ([6]; HCT8, IC50 taxol-resistant over IC50 taxol-sensitive): 0.37 | IC50 [7]: 9.59 µM | IC50 ([8]; A549, MTT, 72 h): 2.37 µM | Resistant Factor ([8]; A549, IC50 taxol-resistant over IC50 taxol-sensitive): 0.25 | IC50 [9]: 11.9 µM | IC50 ([10]; A2780, MTT, 72 h): 11.2 µM | Resistant Factor ([10]; A2780, cisplatin-resistant over cisplatin-sensitive): 0.94 | IC50 [11]: 11.7 µM | IC50 ([12]; SGC-7901, MTT, 72 h): 17.6 µM | Resistant Factor ([12]; SGC-7901, cisplatin-resistant over cisplatin-sensitive): 1.50 | IC50 [13]: 7.06 µM | IC50 ([14]; OV2008/C13, MTT, 72 h): 15.6 µM | Resistant Factor ([14]; OV2008/C13 over OV2008): 2.21 | IC50 [15]: 17.1 µM | Resistant Factor ([16]; HCT116 p53^−/− over HCT116 p53^+/+): 0.52 | IC50 ([16]; MTT, 72 h): 8.89 µM | IC50 (Atg7 wild-type MEFs): 4.84 µM | IC50 (Atg7 deficient MEFs): 14 µM
